# Reference: US20180339010A1, “USE OF SHORT SYNTHETIC PEPTIDE FOR THE TREATMENT AND/OR PROPHYLAXIS OF DRY EYE DISEASE” (priority 2015, published 2018)
# Key:
# Type in all cases: in vivo, C57BL/6 mice
# [1] = test system: desiccating stressed-mice; test: Tear production (phenol red thread), prophylactic treatment in desiccating stress-induced dry eye model; details: peptide 100 μM topically three times daily for 14 days in CEC; vehicle control 3.7±0.25
# Procedure: (§1) C57BL/6 mice (7-8 weeks old, each weighted about 18 to 25 g) were used in the present study. All mice were maintained in the animal facility in accordance with the procedures approved by Mackay Memorial Hospital Review Board (Taiwan, R.O. C.). All animal experimental procedures were conducted according to the ARVO Statement for the Use of Animals in Ophthalmic and Vision Research.
# (§2) Dry eyes were induced by placing mice in a controlled environment chamber (CEC) in accordance with procedures previously described by Barabino et al (IVOS (2005) 46(8), 2766-2771). Mice placed in the CEC were exposed to a relative humidity (RH)<25%, temperature of 20 to 22° C., and airflow of 15 L/min, 12 hours per day. Control mice were kept in a normal environment (RH >50%, no air flow, temperature of 21-23° C.) for the same duration.
# Tear production was measured by phenol red-impregnated cotton threads (Zone-Quick; Oasis, Glendora, Calif.). The validity of this test in mice was performed in accordance with procedures previously described by Dursun et al. (IVOS (2002) 43, 632-638). The threads were held with jeweler forceps and placed in the lateral canthus for 60 seconds. The tear production expressed in millimeters of thread wet by the tear and turned red.
# (§3) Dry eye was created in mice using a controlled environmental chamber (CEC) in accordance with procedures described in the “material and method” section. Treatment was started on the first day when the mice were housed in CEC, in which the present synthetic peptide (i.e., 7-mer, 100 μM), peptide vehicle (1% CMC), or peptides derived from 7-mer (i.e., 7-mer-ΔD, 7-mer-ΔS, 7-mer (V→L) and 7-mer (VR→QK), 100 μM) were topically administered to eyes three times daily for 14 days. The peptides 7-mer-ΔD (LYRVRS, SEQ ID NO: 6) and 7-mer-ΔS (DLYRVR, SEQ ID NO: 7) represented peptides with one amino acid residue respectively deleted from 5-end (D; Aspartic acid) and 3′-end (S; Serine) of 7-mer, and were used as negative control peptides. In addition, the effects of single and double amino-acid substitution at 7-mer that generate 7-mer (V→L) and 7-mer (VR→QK) were also used to treat dry eye.
# The protective effects of 7-mer and its derivatives on DED were also evaluated by measuring tears produced by the test animals, and results are depicted in FIG. 2.
# [2] = test system: desiccating stressed-mice; test: Corneal fluorescein staining, prophylactic treatment in desiccating stress-induced dry eye (CEC) model; details: for corneal fluorescein staining (score), FIG. 1B: peptide 100 μM topically to eyes three times daily for 14 days, started first day in CEC, 1% CMC vehicle 3.8±0.31; for biological function towards DED (summary statement): deletion peptides of SEQ ID NO: 2
# Procedure: as §1, §2
# Animals were anesthetized by an intraperitoneal injection of a mixture of zoletil (6 mg/kg) and xylazine (3 mg/kg). Corneal epithelial injury was determined by staining with topical fluorescein (Fluor-I-Strip, Ayerst Laboratories, Philadelphia, Pa.). Corneal fluorescein staining was examined with a slit-lamp biomicroscope under cobalt blue light and photographed with a digital camera. Data is presented as mean±SD. The number of fluorescein staining dots were graded in the 1-mm central cornea zone of each eye, on a standardized five-point scale (0 dot, grade 0; 1-5 dots, grade 1; 6-15 dots, grade 2; 16-30 dots, grade 3; 30 dots, grade 4). One point was added to the score if there was one area of confluent staining, and two points were added for two or more areas of confluence. (Li J et al., Mole Visions 2012, 18, 317)
# as §3
# Fluorescein staining was used to assess changes in corneal epithelial integrity, and results are illustrated in FIGS. 1A and 1B. FIG. 1A are photographs taken on dry eyes respectively treated with the 1% CMC vehicle, 7-mer and its derivates; and FIG. 1B gives the quantitative analysis of FIG. 1A.
# [3] = test system: desiccating stressed-mice; test: Corneal fluorescein staining, therapeutic treatment of desiccation stress-induced dry eye; details: 14 days in CEC, then eye drops for 7 days in normal environment (day 21); peptides 100 μM; 1% CMC control 3.6±0.26
# Procedure: as §1, §2
# Animals were anesthetized by an intraperitoneal injection of a mixture of zoletil (6 mg/kg) and xylazine (3 mg/kg). Corneal epithelial injury was determined by staining with topical fluorescein (Fluor-I-Strip, Ayerst Laboratories, Philadelphia, Pa.). Corneal fluorescein staining was examined with a slit-lamp biomicroscope under cobalt blue light and photographed with a digital camera. Data is presented as mean±SD. […]
# [4] = test system: desiccating stressed-mice; test: PAS staining of goblet cells in conjunctival epithelium, therapeutic treatment; details: 14 days in CEC, then eye drops for 7 days; for number of goblet cells in PAS-stained sections, observation in words, FIG. 5A: peptides 100 μM
# Procedure: as §1, §2
# After animals were euthanized, eyes were surgically excised, fixed in 10% formalin, paraffin embedded, and cut into 5-μm sections. […] Statistics
# Dry eye was created by housing the test animals in CEC for 14 days in accordance with procedures described in the “material and method” section. After confirmation of signs of DED by fluorescein stain (FIG. 3A; upper panel; day 14), animals were then removed from the CEC and placed in the normal environment (day 15), then started treatment by administering eye drop containing 1% CMC, 1% dexamethasone (Dex), 7-mer (100 μM), or 7-mer (ΔS) (100 μM) for 7 days (FIG. 3A; lower panel; day 21; and FIG. 3B).
# [5] = test system: desiccating stressed-mice; test: Corneal epithelial histopathology (H&E), detached superficial apical cells, therapeutic treatment; details: 14 days in CEC, then eye drops for 7 days, peptides 100 μM; for detached superficial apical cells on H&E stained cornea sections, observation in words, FIG. 4A: 0.1% Dex; for detached superficial apical cells (number), FIG. 4B: 1% CMC control 14±1.06
# Procedure: as §1, §2
# The corneal epithelial damage was assessed as described previously (Pflugfelder et al., 2005, Am J Pathol 166, 61-71). In brief, the number of detaching apical cells was counted from a full microscope field-of vision from three separate tissue sections, by two independent masked observers, using a 20 objective. Three mice were evaluated in each treatment
# Dry eye was created by housing the test animals in CEC for 14 days in accordance with procedures described in the “material and method” section. After confirmation of signs of DED by fluorescein stain (FIG. […] 3A; lower panel; day 21; and FIG. 3B).
substance,measurement,setting,value
"DLYRQKS [7-mer (VR→QK), NH2-Asp-Leu-Tyr-Arg-Gln-Lys-Ser-COOH]","tear production (thread wet by the tear), FIG. 2",[1],4.9±0.15 millimeters
"DLYRVRS [7-mer, NH2-Asp-Leu-Tyr-Arg-Val-Arg-Ser-COOH]","corneal fluorescein staining (score), FIG. 1B",[2],1.3±0.21
same,"corneal fluorescein staining score, FIG. 3B",[3],1.5±0.18
same,"tear production (thread wet by the tear), FIG. 2",[1],5.1±0.21 millimeters
same,"goblet cells (number), FIG. 5B","[4]; 7-mer 100 μM, 1% CMC control 7.5±0.96",12.7±1.28
same,"number of goblet cells in PAS-stained sections, observation in words, FIG. 5A",[4],relatively the same as that of the normal healthy mice
same,"detached superficial apical cells on H&E stained cornea sections, observation in words, FIG. 4A",[5],no detached cells were found
same,"detached superficial apical cells (number), FIG. 4B",[5],2.1±0.37
"DLYRLRS [7-mer (V→L), NH2-Asp-Leu-Tyr-Arg-Leu-Arg-Ser-COOH]","tear production (thread wet by the tear), FIG. 2",[1],5.0±0.16 millimeters
"LYRVRS [7-mer (ΔD), negative control peptide, 7-mer with N-terminal aspartate deleted]",biological function towards DED (summary statement),[2],do not possess any biological function towards DED
same,"corneal fluorescein staining (score), FIG. 1B",[2],no such effect
same,"tear production (thread wet by the tear), FIG. 2",[1],neither 7-mer (ΔD) nor 7-mer (ΔS) peptides possessed such effect
"DLYRVR [7-mer (ΔS), negative control peptide, 7-mer with C-terminal serine deleted]",biological function towards DED (summary statement),[2],do not possess any biological function towards DED
same,"corneal fluorescein staining (score), FIG. 1B",[2],no such effect
same,"corneal fluorescein staining score, FIG. 3B",[3],no therapeutic effect
same,"tear production (thread wet by the tear), FIG. 2",[1],neither 7-mer (ΔD) nor 7-mer (ΔS) peptides possessed such effect
same,"number of goblet cells in PAS-stained sections, observation in words, FIG. 5A",[4],significant reduction in the number of goblet cells
same,"detached superficial apical cells on H&E stained cornea sections, observation in words, FIG. 4A",[5],Detached superficial apical cells were identified
same,"detached superficial apical cells (number), FIG. 4B",[5],13.8±1.03
